Results published in paper PMC8373216, “Development and Preclinical Evaluation of New Inhaled Lipoglycopeptides for the Treatment of Persistent Pulmonary Methicillin-Resistant Staphylococcus aureus Infections” (Antimicrobial Agents and Chemotherapy, 2021).
Values after ≈ are worked out from the molar mass of the structure shown. Like-named read-outs stand apart in the source and are kept apart here.

Key:
[1] = test system: MRSA ATCC BAA 1556 (USA300); assay: In-house broth microdilution MIC screening; type: cell-based, Staphylococcus aureus; conditions: for MIC: Staphylococcus aureus, read-out: MIC Value, MRSA ATCC BAA 1556
[2] = test system: MSSA ATCC 29213; assay: In-house broth microdilution MIC screening; type: cell-based; conditions: Staphylococcus aureus, read-out: MIC Value, MSSA ATCC 29213
[3] = Single-dose nebulized nose-only inhalation PK in healthy rats; type: in vivo, rat; conditions: male, Sprague Dawley, rat, in vivo
Experimental: Rats were acclimated in the study facility for approximately 1 week prior to study start. Ten or eleven rats per cohort were loaded into the chamber at the time of dosing. […] An additional airflow set to 6 liters/min was admixed with the nebulizer output to further direct the test articles to the animals. […] The remaining port on the chamber was fit with an aerosol sampling filter for dose determination over a 5 min sampling period. The average dose delivered to the nose of each animal was calculated using an algorithm that was previously described ([49]). […] Animals were euthanized for collection of whole lungs and plasma at time points ranging from immediate postdose (IPD; approximately 30 min after dosing for nebulization) to 168 h postdose (7 days). Drugs were extracted from tissues using customized protein precipitation methods with an appropriate internal standard for each compound and transferred for analysis by LC-MS/MS (Sciex API4500 or API6500+ mass spectrometer [Sciex, Framingham, MA]). GraphPad Prism (La Jolla, CA) was used for statistical analyses and data plotting. […] The data were applied to a noncompartmental analysis after extravascular dosing input and fit to a linear up/log down model. Statistical analysis of in vitro intracellular and biofilm activity was based on a two-way ANOVA with a Bonferroni post test. In vivo statistical analysis was based on the Kolmogorov-Smirnov test.

[4] = MRSA and MSSA isolates of Table 1

Row | Compound | MIC ([1]; broth microdilution) | MIC ([2]; broth microdilution) | further results
1 | CCCCCCCCCCCCCCCC(=O)OCCNC1(C)CC(OC2C(Oc3c4cc5cc3Oc3ccc(cc3Cl)C(O)C3NC(=O)C(NC(=O)C5NC(=O)C(CC(N)=O)NC(=O)C(NC(=O)C(CC(C)C)NC)C(O)c5ccc(c(Cl)c5)O4)c4ccc(O)c(c4)-c4c(O)cc(O)cc4C(C(=O)O)NC3=O)OC(CO)C(O)C2O)OC(C)C1O (centres unmarked) [RV89] | 1 µg/mL (≈ 0.577 µM) | 0.5 µg/mL (≈ 0.289 µM) | –
2 | CCCCCCCCCCCCCCNC(=O)CNC1(C)CC(OC2C(Oc3c4cc5cc3Oc3ccc(cc3Cl)C(O)C3NC(=O)C(NC(=O)C5NC(=O)C(CC(N)=O)NC(=O)C(NC(=O)C(CC(C)C)NC)C(O)c5ccc(c(Cl)c5)O4)c4ccc(O)c(c4)-c4c(O)cc(O)cc4C(C(=O)O)NC3=O)OC(CO)C(O)C2O)OC(C)C1O (centres unmarked) [RV130] | 0.25 µg/mL (≈ 0.147 µM) | 0.125 µg/mL (≈ 0.0734 µM) | –
3 | CCCCCCCCCC(=O)OCCNC1(C)CC(OC2C(Oc3c4cc5cc3Oc3ccc(cc3Cl)C(O)C3NC(=O)C(NC(=O)C5NC(=O)C(CC(N)=O)NC(=O)C(NC(=O)C(CC(C)C)NC)C(O)c5ccc(c(Cl)c5)O4)c4ccc(O)c(c4)-c4c(O)cc(O)cc4C(C(=O)O)NC3=O)OC(CO)C(O)C2O)OC(C)C1O (centres unmarked) [RV54] | 0.167 µg/mL (≈ 0.101 µM) | 0.146 µg/mL (≈ 0.0886 µM) | –
4 | CNC(CC(C)C)C(=O)NC1C(=O)NC(CC(N)=O)C(=O)NC2C(=O)NC3C(=O)NC(C(=O)NC(C(=O)O)c4cc(O)cc(O)c4-c4cc3ccc4O)C(O)c3ccc(c(Cl)c3)Oc3cc2cc(c3OC2OC(CO)C(O)C(O)C2OC2CC(C)(NCCO)C(O)C(C)O2)Oc2ccc(cc2Cl)C1O (centres unmarked) [RV80] | 2 µg/mL (≈ 1.34 µM) | 1.5 µg/mL (≈ 1 µM) | Lung retention of primary hydrolysis by-product [3]: sustained in the lung throughout the course of the 120 h experiments
5 | CCCCCCCC(=O)NCCNC1(C)CC(OC2C(Oc3c4cc5cc3Oc3ccc(cc3Cl)C(O)C3NC(=O)C(NC(=O)C5NC(=O)C(CC(N)=O)NC(=O)C(NC(=O)C(CC(C)C)NC)C(O)c5ccc(c(Cl)c5)O4)c4ccc(O)c(c4)-c4c(O)cc(O)cc4C(C(=O)O)NC3=O)OC(CO)C(O)C2O)OC(C)C1O (centres unmarked) [RV93] | 0.125 µg/mL (≈ 0.0772 µM) | 0.125 µg/mL (≈ 0.0772 µM) | –
6 | CNC(CC(C)C)C(=O)NC1C(=O)NC(CC(N)=O)C(=O)NC2C(=O)NC3C(=O)NC(C(=O)NC(C(=O)O)c4cc(O)cc(O)c4-c4cc3ccc4O)C(O)c3ccc(c(Cl)c3)Oc3cc2cc(c3OC2OC(CO)C(O)C(O)C2OC2CC(C)(NCCN)C(O)C(C)O2)Oc2ccc(cc2Cl)C1O (centres unmarked) [RV82] | 2 µg/mL (≈ 1.34 µM) | 2 µg/mL (≈ 1.34 µM) | Lung retention of primary hydrolysis by-product [3]: sustained in the lung throughout the course of the 120 h experiments
7 | CCCCCCCCOC(=O)CNC1(C)CC(OC2C(Oc3c4cc5cc3Oc3ccc(cc3Cl)C(O)C3NC(=O)C(NC(=O)C5NC(=O)C(CC(N)=O)NC(=O)C(NC(=O)C(CC(C)C)NC)C(O)c5ccc(c(Cl)c5)O4)c4ccc(O)c(c4)-c4c(O)cc(O)cc4C(C(=O)O)NC3=O)OC(CO)C(O)C2O)OC(C)C1O (centres unmarked) [RV124] | 0.75 µg/mL (≈ 0.463 µM) | 0.5 µg/mL (≈ 0.309 µM) | –
8 | CCCCCCCC(=O)OCCNC1(C)CC(OC2C(Oc3c4cc5cc3Oc3ccc(cc3Cl)C(O)C3NC(=O)C(NC(=O)C5NC(=O)C(CC(N)=O)NC(=O)C(NC(=O)C(CC(C)C)NC)C(O)c5ccc(c(Cl)c5)O4)c4ccc(O)c(c4)-c4c(O)cc(O)cc4C(C(=O)O)NC3=O)OC(CO)C(O)C2O)OC(C)C1O (centres unmarked) [RV90] | – | – | MIC [1]: 0.25 µg/mL (≈ 0.154 µM); MIC [2]: 0.25 µg/mL (≈ 0.154 µM)
9 | CCCCCCCCCCCCNC(=O)CNC1(C)CC(OC2C(Oc3c4cc5cc3Oc3ccc(cc3Cl)C(O)C3NC(=O)C(NC(=O)C5NC(=O)C(CC(N)=O)NC(=O)C(NC(=O)C(CC(C)C)NC)C(O)c5ccc(c(Cl)c5)O4)c4ccc(O)c(c4)-c4c(O)cc(O)cc4C(C(=O)O)NC3=O)OC(CO)C(O)C2O)OC(C)C1O (centres unmarked) [RV95] | 0.031 µg/mL (≈ 0.0185 µM) | 0.031 µg/mL (≈ 0.0185 µM) | MIC potency, fold less potent than RV40 [1, 4]: ~2 fold; MIC potency, fold more potent than telavancin [1, 4]: ~2 fold; MIC potency, fold more potent than vancomycin [1, 4]: approximately 30 fold
10 | CNC(CC(C)C)C(=O)NC1C(=O)NC(CC(N)=O)C(=O)NC2C(=O)NC3C(=O)NC(C(=O)NC(C(=O)O)c4cc(O)cc(O)c4-c4cc3ccc4O)C(O)c3ccc(c(Cl)c3)Oc3cc2cc(c3OC2OC(CO)C(O)C(O)C2OC2CC(C)(NCC(=O)O)C(O)C(C)O2)Oc2ccc(cc2Cl)C1O (centres unmarked) [RV101] | > 128 µg/mL | > 128 µg/mL | –
11 | CCCCCCCCCCCCCC(=O)NCCNC1(C)CC(OC2C(Oc3c4cc5cc3Oc3ccc(cc3Cl)C(O)C3NC(=O)C(NC(=O)C5NC(=O)C(CC(N)=O)NC(=O)C(NC(=O)C(CC(C)C)NC)C(O)c5ccc(c(Cl)c5)O4)c4ccc(O)c(c4)-c4c(O)cc(O)cc4C(C(=O)O)NC3=O)OC(CO)C(O)C2O)OC(C)C1O (centres unmarked) [RV92] | 0.031 µg/mL (≈ 0.0182 µM) | 0.023 µg/mL (≈ 0.0135 µM) | –
12 | CCCCCCCCCCCC(=O)OCCNC1(C)CC(OC2C(Oc3c4cc5cc3Oc3ccc(cc3Cl)C(O)C3NC(=O)C(NC(=O)C5NC(=O)C(CC(N)=O)NC(=O)C(NC(=O)C(CC(C)C)NC)C(O)c5ccc(c(Cl)c5)O4)c4ccc(O)c(c4)-c4c(O)cc(O)cc4C(C(=O)O)NC3=O)OC(CO)C(O)C2O)OC(C)C1O (centres unmarked) [RV65] | 0.094 µg/mL (≈ 0.0561 µM) | 0.063 µg/mL (≈ 0.0376 µM) | –
13 | CCCCCCCCNC(=O)CNC1(C)CC(OC2C(Oc3c4cc5cc3Oc3ccc(cc3Cl)C(O)C3NC(=O)C(NC(=O)C5NC(=O)C(CC(N)=O)NC(=O)C(NC(=O)C(CC(C)C)NC)C(O)c5ccc(c(Cl)c5)O4)c4ccc(O)c(c4)-c4c(O)cc(O)cc4C(C(=O)O)NC3=O)OC(CO)C(O)C2O)OC(C)C1O (centres unmarked) [RV121] | 0.25 µg/mL (≈ 0.154 µM) | 0.25 µg/mL (≈ 0.154 µM) | –
14 | CCCCCCCCCCCCCCCCOC(=O)CNC1(C)CC(OC2C(Oc3c4cc5cc3Oc3ccc(cc3Cl)C(O)C3NC(=O)C(NC(=O)C5NC(=O)C(CC(N)=O)NC(=O)C(NC(=O)C(CC(C)C)NC)C(O)c5ccc(c(Cl)c5)O4)c4ccc(O)c(c4)-c4c(O)cc(O)cc4C(C(=O)O)NC3=O)OC(CO)C(O)C2O)OC(C)C1O (centres unmarked) [RV128] | 1 µg/mL (≈ 0.577 µM) | 1 µg/mL (≈ 0.577 µM) | –
15 | CCCCCCCCCCOC(=O)CNC1(C)CC(OC2C(Oc3c4cc5cc3Oc3ccc(cc3Cl)C(O)C3NC(=O)C(NC(=O)C5NC(=O)C(CC(N)=O)NC(=O)C(NC(=O)C(CC(C)C)NC)C(O)c5ccc(c(Cl)c5)O4)c4ccc(O)c(c4)-c4c(O)cc(O)cc4C(C(=O)O)NC3=O)OC(CO)C(O)C2O)OC(C)C1O (centres unmarked) [RV55] | 0.25 µg/mL (≈ 0.152 µM) | 0.25 µg/mL (≈ 0.152 µM) | –
16 | CCCCCCCCCC(=O)NCCNC1(C)CC(OC2C(Oc3c4cc5cc3Oc3ccc(cc3Cl)C(O)C3NC(=O)C(NC(=O)C5NC(=O)C(CC(N)=O)NC(=O)C(NC(=O)C(CC(C)C)NC)C(O)c5ccc(c(Cl)c5)O4)c4ccc(O)c(c4)-c4c(O)cc(O)cc4C(C(=O)O)NC3=O)OC(CO)C(O)C2O)OC(C)C1O (centres unmarked) [RV56] | 0.063 µg/mL (≈ 0.0383 µM) | 0.063 µg/mL (≈ 0.0383 µM) | –
17 | CCCCCCCCCCCCCC(=O)OCCNC1(C)CC(OC2C(Oc3c4cc5cc3Oc3ccc(cc3Cl)C(O)C3NC(=O)C(NC(=O)C5NC(=O)C(CC(N)=O)NC(=O)C(NC(=O)C(CC(C)C)NC)C(O)c5ccc(c(Cl)c5)O4)c4ccc(O)c(c4)-c4c(O)cc(O)cc4C(C(=O)O)NC3=O)OC(CO)C(O)C2O)OC(C)C1O (centres unmarked) [RV88] | 0.125 µg/mL (≈ 0.0734 µM) | 0.125 µg/mL (≈ 0.0734 µM) | Pulmonary dose [3]: 0.12 mg/kg; Time to full conversion to hydrolysis product in the lung [3]: ≤ 24 h; Drug lung level at 120 h ([3]; 120 h): 1.5%; Primary hydrolysis byproduct lung level at 120 h ([3]; 120 h): 71%; Kp ([3]; inhaled or intranasal): 1350; Lung AUC0-∞ ([3]; inhaled or intranasal): 360 µg·h/g; Lung Cmax ([3]; inhaled or intranasal): 26 µg/g; Lung t1/2 ([3]; inhaled or intranasal): 21 h; Plasma Cmax ([3]; inhaled or intranasal): 20 ng/mL
18 | CCCCCCCCCCCCCCCC(=O)NCCNC1(C)CC(OC2C(Oc3c4cc5cc3Oc3ccc(cc3Cl)C(O)C3NC(=O)C(NC(=O)C5NC(=O)C(CC(N)=O)NC(=O)C(NC(=O)C(CC(C)C)NC)C(O)c5ccc(c(Cl)c5)O4)c4ccc(O)c(c4)-c4c(O)cc(O)cc4C(C(=O)O)NC3=O)OC(CO)C(O)C2O)OC(C)C1O (centres unmarked) [RV91] | 0.25 µg/mL (≈ 0.144 µM) | 0.188 µg/mL (≈ 0.109 µM) | –
19 | CCCCCCCCCCCCCCOC(=O)CNC1(C)CC(OC2C(Oc3c4cc5cc3Oc3ccc(cc3Cl)C(O)C3NC(=O)C(NC(=O)C5NC(=O)C(CC(N)=O)NC(=O)C(NC(=O)C(CC(C)C)NC)C(O)c5ccc(c(Cl)c5)O4)c4ccc(O)c(c4)-c4c(O)cc(O)cc4C(C(=O)O)NC3=O)OC(CO)C(O)C2O)OC(C)C1O (centres unmarked) [RV127] | 4 µg/mL (≈ 2.35 µM) | 4 µg/mL (≈ 2.35 µM) | –
20 | CCCCCCCCCCCCOC(=O)CNC1(C)CC(OC2C(Oc3c4cc5cc3Oc3ccc(cc3Cl)C(O)C3NC(=O)C(NC(=O)C5NC(=O)C(CC(N)=O)NC(=O)C(NC(=O)C(CC(C)C)NC)C(O)c5ccc(c(Cl)c5)O4)c4ccc(O)c(c4)-c4c(O)cc(O)cc4C(C(=O)O)NC3=O)OC(CO)C(O)C2O)OC(C)C1O (centres unmarked) [RV126] | 2 µg/mL (≈ 1.19 µM) | 2 µg/mL (≈ 1.19 µM) | –
21 | CCCCCCCCCCCCCCCCNC(=O)CNC1(C)CC(OC2C(Oc3c4cc5cc3Oc3ccc(cc3Cl)C(O)C3NC(=O)C(NC(=O)C5NC(=O)C(CC(N)=O)NC(=O)C(NC(=O)C(CC(C)C)NC)C(O)c5ccc(c(Cl)c5)O4)c4ccc(O)c(c4)-c4c(O)cc(O)cc4C(C(=O)O)NC3=O)OC(CO)C(O)C2O)OC(C)C1O (centres unmarked) [RV131] | 4 µg/mL (≈ 2.31 µM) | 4 µg/mL (≈ 2.31 µM) | –
